Values of other authors as cited in patent US6642275B2, “Formulation for respiratory tract administration” (Euro- Celtique, S.A., priority 1995, dated 2003).
Where two headings read alike, the source gives them in different places.

Legend:
[1] = for plasma clearance rate: 100 mg IV dose
[2] = animal models, M1 vs tramadol
[3] = test system: opioid receptors
[4] = single oral dose, adjusted for body weight

Compound: COc1cccc([C@@]2(O)CCCC[C@H]2CN(C)C)c1 (racemic) [tramadol, (±) trans-2-[(dimethylamino)methyl]-1-(3-methoxyphenyl) cyclohexanol]
- plasma clearance rate ([1]; females): 5.7 mL/min/kg
- plasma clearance rate ([1]; males): 6.4 mL/min/kg
- higher area under the concentration-time curve in females compared to males [1, 4]: 35%
- higher peak tramadol concentration in females compared to males [1, 4]: 12%

Compound: CN(C)C[C@H]1CCCC[C@]1(O)c1cccc(O)c1 [Formula M1, mono-O-desmethyltramadol]
- potency in producing analgesia relative to tramadol [2]: up to 6 times
- potency in producing analgesia relative to tramadol ([2]; listed as mono-O-desmethyltramadol): about 6 times
- binding to opioid receptors (affinity, in words) [3]: high affinity
- potency in opioid receptor binding relative to tramadol ([3]; M1 vs tramadol): 200 times
